Results: patent US7981897B2, “Crystal form of (3-cyano-1H-Indo1-7-yl)-[4-(4-fluorophenethyl)piperazin-1-yl]methanone, hydrochloride” (Merck Patent GmbH, priority 2004, dated 2011)

Columns and labels:
[1] = Tabletting in a cam press: formation of form B under mechanical pressure, estimated by X-ray powder diffraction; type: physicochemical
Description: The pressures here are preferably those which usually prevail during tablet production if ram forces of between about 2 and 16 kN, in particular between 6 and 16 kN, are used as the maximum pressing forces.
In an EK0 cam press from Korsch (Berlin, Germany), year of construction 2002, tablets are produced at a rate of 50 units per minute using a 7 mm, round, flat ram with bevel.
The tablets contain 50 mg of EMD281014 in crystal form A, 93.2 mg of lactose monohydrate, 4.5 mg of croscarmellose and 2.3 mg of magnesium stearate. The ingredients are dry-mixed and compressed directly.
The proportion of form B is estimated by comparison of the X-ray powder diffraction patterns of the mixtures (FIGS. 3 and 4) with the diffraction patterns of the pure forms (FIGS. 1 and 2).

[2] = Stirring a suspension of form A in MTBE, form B estimated by X-ray powder diffraction; type: physicochemical
[3] = Storage of form B at elevated temperature, conversion into form A; type: physicochemical; conditions: storage at 105° C. for 24 hours
Description: Furthermore, a very simple method for the preparation of form A from form B has been found. To this end, form B merely needs to be stored at elevated temperatures of between about 75 and about 225° C., preferably 90 and 160° C. and particularly preferably between 110 and 140° C. Depending on the temperature and the storage duration, different degrees of conversion can be achieved. Depending on the target degree of conversion, the storage duration at a given temperature can be between a few minutes and several days. In order to achieve high degrees of conversion, […] is preferably stored for from several hours to days. Suitable storage times are, for example, 4, 8, 12, 16, 20, 24, 36 or 48 hours.

5-HT2A receptor [4] = target: T1, 5-HT2A receptor (Homo sapiens, UniProt P28223); conditions: background statement, no values; cited from earlier work
5-HT2A receptor [5] = target: T1, 5-HT2A receptor; conditions: background statement, no values; cited from earlier work; remark: listed apart in the source
[6] = cam press, contact time 310 ms, maximum pressing force 16 kN

T1 sequence (P28223 whole entry): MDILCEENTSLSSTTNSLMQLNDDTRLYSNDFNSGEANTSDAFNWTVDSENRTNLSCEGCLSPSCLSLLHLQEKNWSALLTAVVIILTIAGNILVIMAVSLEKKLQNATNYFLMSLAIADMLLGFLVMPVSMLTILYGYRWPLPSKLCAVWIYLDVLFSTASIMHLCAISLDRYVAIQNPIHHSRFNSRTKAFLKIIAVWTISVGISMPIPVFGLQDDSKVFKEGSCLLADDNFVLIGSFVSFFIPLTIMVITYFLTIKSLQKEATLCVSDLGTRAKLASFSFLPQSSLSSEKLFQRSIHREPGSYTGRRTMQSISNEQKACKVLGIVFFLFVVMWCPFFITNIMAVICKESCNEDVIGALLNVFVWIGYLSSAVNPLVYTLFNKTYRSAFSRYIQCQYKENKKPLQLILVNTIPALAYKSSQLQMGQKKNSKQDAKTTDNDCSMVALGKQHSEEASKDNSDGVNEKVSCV

Cl.N#Cc1c[nH]c2c(C(=O)N3CCN(CCc4ccc(F)cc4)CC3)cccc12 [EMD281014 form A, 7-{4-[2-(4-fluorophenyl)ethyl]-piperazine-1-carbonyl}-1H-indole-3-carbonitrile, hydrochloride]
proportion of form B ([1]; cam press, contact time 250 ms, maximum pressing force 6 kN): about 20%
proportion of form A in the mixture obtained [1, 6]: ~75%
proportion of form B in the mixture obtained [1, 6]: about 25%
proportion of form B ([2]; 250 mg in 5 ml MTBE, stirred 14 days at room temperature): about 30 % by weight
form B obtained in addition to form A ([2]; suspension in MTBE, room temperature, 14 days): about 30%

Cl.N#Cc1c[nH]c2c(C(=O)N3CCN(CCc4ccc(F)cc4)CC3)cccc12 [EMD281014 form B, (3-cyano-1H-indol-7-yl)-[4-(4-fluorophenethyl)piperazin-1-yl]methanone, hydrochloride]
stability under the tablet production conditions ([1]; X-ray diffraction patterns of tablets produced from form B, no form A or further polymorphic forms unambiguously identified): stable
conversion of B into A [3]: complete conversion

Cl.N#Cc1c[nH]c2c(C(=O)N3CCN(CCc4ccc(F)cc4)CC3)cccc12 [EMD281014, (3-cyano-1H-indol-7-yl)-[4-(4-fluorophenethyl)piperazin-1-yl]methanone, hydrochloride]
affinity to 5-HT2A receptors (5-HT2A receptor [4]): strong affinity
5-HT2A receptor-antagonistic properties (5-HT2A receptor [5]): 5-HT2A receptor-antagonistic properties
